Measurements as given in PMC9114115, “Property space mapping of Pseudomonas aeruginosa permeability to small molecules” (Scientific Reports, 2022).
Several values for one entry are separate records, joined by “and”; a condition that tells them apart may be missing. Identical values can stand only once. Counter-ions that a name gives are not always drawn. Like-named read-outs stand apart in the source and are kept apart here.

Key:
[1] = tested on: P. aeruginosa PAO1; assay: MIC by two-fold dilution, wild type PAO1; type: cell-based, Pseudomonas aeruginosa; conditions: PAO1, MOPS-M9 medium, read-out: MICs
Protocol: (§1) In all experiments, P. aeruginosa PAO1-Pore (PAO1 attTn7::PLAC-fhuA) and PΔ3-Pore (ΔmexAB ΔmexCD ΔmexXY attTn7::PLAC-fhuA) strains were used[29]. Strains were routinely grown in Luria–Bertani (LB) or MOPS-M9 medium at 37 °C with aeration. MICs shown in Tables 1 and 2 were determined by a two-fold dilution method in LB broth and MOPS-M9 medium, respectively, following the previously described protocol.

[2] = tested on: P. aeruginosa PAO1-Pore; assay: MIC by two-fold dilution, hyperporinated PAO1-Pore; type: cell-based, Pseudomonas aeruginosa; conditions: for MICs: PAO1-Pore; for MIC: Pseudomonas aeruginosa, PAO1, read-out: MICs
Protocol: as §1

[3] = tested on: P. aeruginosa PΔ3; assay: microbe, parasite or virus in culture; type: cell-based, Pseudomonas aeruginosa; conditions: for MICs: P∆3, MOPS-M9 medium; for MIC: Pseudomonas aeruginosa, read-out: MICs
Protocol: as §1

[4] = tested on: P. aeruginosa PΔ3-Pore; assay: MIC by two-fold dilution, barrierless PΔ3-Pore; type: cell-based, Pseudomonas aeruginosa; conditions: for MICs: P∆3-Pore; for MIC: Pseudomonas aeruginosa, read-out: MICs, P∆3-Pore, MOPS-M9 medium
Protocol: as §1

[5] = tested on: P. aeruginosa PAO1-Pore cells; assay: LC–MS quantification of intracellular accumulation, PAO1-Pore; conditions: 10-80 µM; for Concentration slopes of accumulation, PAO1-Pore_1 min: 1 min incubation; for Concentration slopes of accumulation, PAO1-Pore_40 min: 40 min incubation;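 for all read-outs here: slope of accumulation versus external concentration fitted as a line through zero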
Protocol: (§2) PAO1-Pore and PΔ3-Pore were grown at 37 °C overnight with shaking at 225 rpm in 50 mM MOPS-M9 (pH 7.2) Minimal Medium supplemented with 1% glycerol[42],[43].
(§3) The next day, cells were sub-cultured (1.5:100) in fresh MOPS-M9 medium and grown for 16 h. The cultures were then split into two flasks and one of them was induced with 0.1 mM IPTG. Cells incubated for additional 4 h until OD600 reached ~ 1.0 and harvested by centrifugation at 3,275xg for 20 min in RT, washed and concentrated 10X in the spent medium. Assays were performed in 96-well plates in a final volume of […]. Cells were incubated with 10, 20, 40, 80 µM of compounds and after 1- and 40-min incubation at RT, 100 µL cell aliquots were collected by vacuum filtration onto 1.0 µm Glass Fiber Type B filters. For no-cell controls, compounds were diluted to 10, 20, 40, 80 µM final concentration in the same medium, incubated for 1 min and 40 min and filtered onto the same plates. The cell loaded and cell-free filters were dried, removed from plates and placed into 100% methanol at -80 °C for at least 10 min. Filter-bound material was extracted by water bath sonication for 1 min. Cell and filter debris were separated by ultracentrifugation at 45,000 rpm (TLA55 rotor, Beckman) for 8 min at 16 °C and the pellet re-extracted with 80% methanol in water by sonication for 15 min followed by ultracentrifugation at the same conditions. Supernatants from two extractions were combined. For the compound quantification, 5 µL of solution was analyzed in triplicate.
(§4) Calibration curves for MS analyses of compounds were generated in the same experiment by mixing compound at increasing concentrations with the sonicated PAO1 cell extracts. […] Azithromycin was used as a positive control in all experiments.
(§5) Samples were processed in positive ion mode. An Eclipse plus C18 Rapid Resolution HD column (1.8 μm, 2.1 × 50 mm, Agilent, USA) was used for separation. The flow rate was 0.6 mL/min using the following gradient: 0 to 1 min (0- 20% ACN), 1 to 4 min (20- 80% ACN), 4 to 5.1 min (80–100% ACN), 5.1 to 6.30 (100% ACN). Solvents contained 0.1% formic acid to promote positive ion formation in the electrospray. […] Data were analyzed using Agilent Masshunter workstation quantitative analysis v. B.10 software.

[6] = tested on: P. aeruginosa PΔ3 cells; conditions: 10-80 µM; for Concentration slopes of accumulation, PΔ3_1 min: 1 min incubation; for Concentration slopes of accumulation, PΔ3_40 min: 40 min incubation;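 for all read-outs here: slope of accumulation versus external concentration fitted as a line through zero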
Protocol: as §2, §3, §4, §5

[7] = tested on: P. aeruginosa PΔ3-Pore cells; assay: LC–MS quantification of intracellular accumulation, PΔ3-Pore; conditions: 10-80 µM; for Concentration slopes of accumulation, PΔ3-Pore_1 min: 1 min incubation; for Concentration slopes of accumulation, PΔ3-Pore_40min: 40 min incubation;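 for all read-outs here: slope of accumulation versus external concentration fitted as a line through zero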
Protocol: as §2, §3, §4, §5

[8] = tested on: P. aeruginosa; conditions: for Cluster of the identified "good" permeators: sheet "Good" permeators, all listed compounds are good permeators
Protocol: The measured levels of compound accumulation were analyzed using machine learning to determine which features of the compounds are most important for enabling their cellular accumulation and to determine their optimal values. […] To accentuate the permeability aspect, the accumulation slopes in efflux-deficient and hyperporinated strains were normalized to those in the parental PAO1 strain.
To help visualize the data, we performed a principal component (PC) decomposition of the data.

[9] = tested on: P. aeruginosa PAO1 cells; assay: LC–MS quantification of intracellular accumulation, PAO1; conditions: 10-80 µM; for Concentration slopes of accumulation, PAO1_1 min: 1 min incubation; for Concentration slopes of accumulation, PAO1_40 min: 40 min incubation;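 for all read-outs here: slope of accumulation versus external concentration fitted as a line through zero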
Protocol: as §2, §3, §4, §5

SMILES | MICs ([2]; LB broth, Table S2) | MICs ([4]; LB broth, Table S2) | Concentration slopes of accumulation, PAO1-Pore_1 min [5] | Concentration slopes of accumulation, PAO1-Pore_40 min [5] | Concentration slopes of accumulation, PΔ3_1 min [6] | Concentration slopes of accumulation, PΔ3_40 min [6] | Concentration slopes of accumulation, PΔ3-Pore_1 min [7] | Concentration slopes of accumulation, PΔ3-Pore_40min [7] | Cluster of the identified "good" permeators [8] | Concentration slopes of accumulation, PAO1_1 min [9] | Concentration slopes of accumulation, PAO1_40 min [9] | further results
CS(=O)(=O)O.C[C@H]1COc2c(C3(N)CC3)c(F)cc3c(=O)c(C(=O)O)cn1c23 [OU-0000627, PAZUFLOXACIN MESYLATE] | 0.25 | 0.0156 | 5.79 | 7.45 | 3.81 | 5.01 | 5.45 | 5.72 | 1 | – | – | MIC [1]: 0.5 µM; MICs ([2]; MOPS-M9 medium): 0.03 mg/L; MICs ([2]; MOPS-M9 medium, listed as Pazufloxacin mesylate): 0.0625 µM; MICs [3]: 0.05 mg/L; MICs ([3]; listed as Pazufloxacin mesylate): 0.125 µM; MICs ([4]; MOPS-M9 medium): 0.031 μM and 0.01 mg/L
C[C@H]1COc2c(N3CCN(C)CC3)c(F)cc3c(=O)c(C(=O)O)cn1c23 [OU-0000806, Levofloxacin] | 0.25 | 0.0039 | 6.98 | 7.94 | 2.43 | 5.63 | 3.52 | 5.77 | – | 3.66 | 5.59 | MIC ([1]; Pseudomonas aeruginosa): 0.5 µM and 0.18 µg/mL; MIC [2]: 0.031 µM and 0.011 µg/mL; MIC [3]: 0.25 µM and 0.2 µg/mL; MIC [4]: 0.008 µM and 0.003 µg/mL
N[C@@H](CC(=O)N1CCn2c(nnc2C(F)(F)F)C1)Cc1cc(F)c(F)cc1F [OU-0000833, Sitagliptin Monophosphate Monohydrate] | – | – | 4.16 | 4.84 | 4.36 | 4.18 | 4.24 | 4.28 | 1 | 7.55 | 5.67 | permeator classification [8]: good permeators
CN1C[C@H](C(=O)N[C@]2(C)O[C@@]3(O)[C@@H]4CCCN4C(=O)[C@H](Cc4ccccc4)N3C2=O)C=C2c3cccc4[nH]cc(c34)C[C@H]21 [OU-0000834, Ergotamine Tartrate] | – | – | 17.94 | 20.50 | 8.34 | 13.59 | 20.02 | 15.58 | 3 | 15.91 | 12.24 | permeator classification [8]: good permeators
COc1cccc2c1C(=O)c1c(O)c3c(c(O)c1C2=O)C[C@@](O)(C(=O)CO)C[C@@H]3O[C@H]1C[C@H](N)[C@H](O)[C@H](C)O1 [OU-0000835, Doxorubicin] | 100 | 25 | 3.78 | – | 1.32 | 1.10 | 1.89 | 2.13 | – | 1.38 | 0.84 | MIC ([1]; Pseudomonas aeruginosa): 200 µM and 109 µg/mL; MIC [2]: 12.5 µM and 6.8 µg/mL; MIC [3]: 25 µM and 13.6 µg/mL; MIC [4]: 3.2 µM and 1.7 µg/mL
CC1CN=C(c2ccc(NC(=O)Nc3ccc(C4=NCCN4)cc3)cc2)N1.Cl (stereo not shown) [OU-0001395] | – | – | 2.72 | 7.34 | 8.86 | 5.05 | 1.38 | 4.42 | 1 | 3.79 | 6.44 | –
CC(C)(C)OC(=O)N1[C@H](CCC2CCCCC2)CNC(=O)[C@@H]1Cc1cc(F)cc(F)c1 [OU-0032510] | – | – | 37.26 | 28.02 | 30.64 | 29.44 | 31.28 | 28.27 | 3 | 36.86 | 31.85 | –
C=CCN1CC(CCCC)N(C(=O)OC(C)(C)C)C(Cc2ccccc2)C1=O (stereo not shown) [OU-0032511] | – | – | 4.02 | 4.09 | 4.08 | 3.52 | 4.38 | 4.27 | 1 | – | – | –
O=C1N[C@@H](Cc2c[nH]c3ccccc23)C(=O)N2CCC[C@@H]12 [OU-0032512] | – | – | 3.51 | 2.49 | 2.98 | 3.06 | 2.90 | 2.97 | 1 | – | – | –
